Among the test systems are NCI-H23 lung; UO-31 renal; HS 578T breast; SK-MEL-2 melanoma; UACC-62 melanoma; SN12C renal; TK-10 renal; SF-268 CNS; SK-MEL-5 melanoma; SNB-75 CNS.
Assay in all cases: NCI-60 cell line screen, 48 h

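How tested: cells in 96-well plates exposed to compound for 48 hours at five concentrations. TGI: concentration producing complete growth inhibition.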

The source of these data is PubChem BioAssay (NCI).

Consider `Clc1ccc(Cc2nc3ccccc3nc2-c2cccc(Cl)c2)cc1`, for which the TGI worked out at 27 µM in the test on NCI-H23 lung; 3.32 µM in the test with UO-31 renal; 12.4 µM in the test with HS 578T breast; 8.11 µM in the test with SK-MEL-2 melanoma; 3.46 µM in the test on UACC-62 melanoma; 8.63 µM with SN12C renal. Also, the TGI came out at 25.9 µM with TK-10 renal, 44.4 µM in the test on SF-268 CNS and 18.1 µM in the test with SK-MEL-5 melanoma.
`O=c1cnc2cc3ccccc3cc2[nH]1`: the TGI in the test on NCI-H23 lung, in the test with SNB-75 CNS, in the test on UO-31 renal, with HS 578T breast, with SK-MEL-2 melanoma and in the test on SN12C renal was more than 100 µM each time. Also, the TGI in the test on TK-10 renal, in the test on SF-268 CNS and with SK-MEL-5 melanoma was more than 100 µM throughout.
For the compound `O=C1/C(=C/c2cccs2)N=C(c2ccccc2)N1c1nc2ccccc2s1`, the TGI in the test with NCI-H23 lung was more than 100 µM; in the test with UO-31 renal it was more than 100 µM; in the test on HS 578T breast, 38.9 µM; with SK-MEL-2 melanoma it was more than 100 µM; in the test with SN12C renal, more than 100 µM; in the test with TK-10 renal, more than 100 µM. In addition, the values for the TGI in the test on SF-268 CNS and with SK-MEL-5 melanoma were 29.8 µM and more than 100 µM, respectively.
Turning to `COc1ccccc1NC(=O)CSC(N)=O`, the TGI in the test on NCI-H23 lung was more than 100 µM; in the test with SNB-75 CNS it was 84.3 µM; in the test with SK-MEL-2 melanoma it was 61.4 µM; in the test with UACC-62 melanoma, 68.3 µM; with SN12C renal, more than 100 µM; in the test with TK-10 renal it was more than 100 µM. In addition, the TGI with SF-268 CNS and with SK-MEL-5 melanoma was more than 100 µM throughout.
`O=C(NCCNCCO)N/N=C/c1ccccc1`: the TGI in the test on NCI-H23 lung, in the test on SNB-75 CNS, in the test with SK-MEL-2 melanoma, with UACC-62 melanoma, with SN12C renal and with TK-10 renal was more than 100 µM each time. In addition, the TGI with SF-268 CNS and in the test on SK-MEL-5 melanoma was more than 100 µM throughout.
With `CC(C)(C)C(=O)O[C@H]1C=C[C@@H](O)[C@@H]2[C@H]1[C@@H]1C=C[C@H]2C1`, the TGI with NCI-H23 lung is 48 µM; with SNB-75 CNS, more than 100 µM; with UO-31 renal, more than 100 µM; in the test on HS 578T breast, more than 100 µM; with SK-MEL-2 melanoma, more than 100 µM; in the test with UACC-62 melanoma, more than 100 µM. In addition, the results for the TGI in the test with SN12C renal, with TK-10 renal and with SF-268 CNS were 41 µM, more than 100 µM and more than 100 µM, respectively.
In the case of `COc1cccc(OC/C(N=Cc2ccncc2)=N/NC(=O)c2ccncc2)c1`, the TGI with NCI-H23 lung, in the test on HS 578T breast, with SK-MEL-2 melanoma, in the test on UACC-62 melanoma, with SN12C renal and with TK-10 renal was more than 100 µM in each case. The compound also displayed a TGI with SF-268 CNS of more than 100 µM.
With `CC(=O)OCC1(CNc2nc(N)ncc2C#N)CC(CCc2ccccc2)C1` (configuration not stated), the TGI in the test on NCI-H23 lung, with SNB-75 CNS, with UO-31 renal, in the test with HS 578T breast, in the test on SK-MEL-2 melanoma and in the test on UACC-62 melanoma was more than 100 µM each time. Further, the TGI is more than 100 µM in the test on SN12C renal, more than 100 µM in the test on SF-268 CNS and 42.8 µM with SK-MEL-5 melanoma.
For the compound `CCOC(=O)/C(C1=N[C@H](C(=O)OCC)CS1)=C(\O)c1ccccc1`, the TGI in the test with NCI-H23 lung, in the test on SNB-75 CNS, with UO-31 renal, with SK-MEL-2 melanoma, in the test on UACC-62 melanoma and with SN12C renal was more than 100 µM each time. Besides, the TGI in the test on SF-268 CNS and in the test with SK-MEL-5 melanoma was more than 100 µM each time.
On to `NNc1nnc(-c2ccccc2)nc1Cc1ccccc1`, for which the TGI is more than 100 µM with NCI-H23 lung; 31.6 µM in the test on UO-31 renal; more than 100 µM in the test on SK-MEL-2 melanoma; 16.1 µM in the test on UACC-62 melanoma; 51.6 µM in the test with SN12C renal; more than 100 µM in the test with TK-10 renal. Also, the TGI in the test with SF-268 CNS and in the test with SK-MEL-5 melanoma was more than 100 µM in each case.
With `C/C(=N\NC(=O)c1ccncc1)c1cccc(C(F)(F)F)c1`, the TGI with NCI-H23 lung, in the test with SNB-75 CNS, in the test with UO-31 renal, in the test on HS 578T breast, in the test on UACC-62 melanoma and with SN12C renal was more than 10 µM in each case. Also, the TGI with TK-10 renal, in the test with SF-268 CNS and in the test on SK-MEL-5 melanoma was more than 10 µM throughout.
With `S=c1oc(CCCCCCCCc2nn(CNc3ccc(Cl)cc3)c(=S)o2)nn1CNc1ccc(Cl)cc1`, the TGI in the test with NCI-H23 lung, in the test with SNB-75 CNS, with UO-31 renal, with SK-MEL-2 melanoma, in the test on UACC-62 melanoma and with SN12C renal was more than 100 µM in each case. Further, the TGI is more than 100 µM in the test with TK-10 renal, more than 100 µM in the test on SF-268 CNS and 39.8 µM in the test on SK-MEL-5 melanoma.
`Cc1c(Cl)c(=O)oc2cc(OCC(O)COC(C)C)ccc12` (configuration not stated): the TGI in the test with NCI-H23 lung is more than 100 µM; with UO-31 renal, more than 100 µM; in the test on HS 578T breast it was more than 100 µM; in the test with SK-MEL-2 melanoma, 58.2 µM; with UACC-62 melanoma, more than 100 µM; in the test with TK-10 renal, more than 100 µM. Moreover, the TGI is more than 100 µM with SF-268 CNS and 38.3 µM in the test on SK-MEL-5 melanoma.
Consider `CN1C(=O)C(CCO)(C(C)(C)C)c2ccccc21` (configuration not stated), for which the TGI in the test with NCI-H23 lung, in the test on SNB-75 CNS, with UO-31 renal, in the test with HS 578T breast, with SK-MEL-2 melanoma and in the test on UACC-62 melanoma was more than 100 µM each time. Besides, the TGI with SN12C renal, with SF-268 CNS and in the test on SK-MEL-5 melanoma was more than 100 µM throughout.
Regarding `O=C(O)Cn1ncn(NC(=O)Cc2ccccc2)c1=S`, the TGI in the test on NCI-H23 lung, with SNB-75 CNS, in the test on UO-31 renal, with HS 578T breast, with UACC-62 melanoma and with SN12C renal was more than 10 µM each time. Moreover, the TGI with TK-10 renal, in the test with SF-268 CNS and with SK-MEL-5 melanoma was more than 10 µM in each case.
